# Reference: patent publication US20260224503A1, “METHOD FOR PRODUCING PARTICLE, AND PARTICLE PRODUCED BY THE METHOD AND MEDICAMENT” (Ricoh Company, Ltd., priority 2018, published 2026)
# How the values were obtained:
# [1] = Dissolution of diclofenac, dissolution test first liquid (pH 1.2); type: physicochemical
# Description: (§1) Specifically, The Japanese Pharmacopoeia dissolution test first solution (1,000 mL of a liquid prepared by dissolving 2.0 g of sodium chloride and 7.0 mL of hydrochloric acid in water, pH 1.2) and dissolution test second solution (50 mL of phosphate buffer solution, pH 6.8 (a liquid prepared by mixing water with a liquid, which had been prepared by dissolving 3.4 g of potassium dihydrogen phosphate and 3.55 g of anhydrous disodium hydrogen phosphate in water to give 1,000 mL, at the mixing ratio of 1:1, pH 6.8)) were used as the test liquids, and the test was performed at 37±0.5 degrees Celsius and at the rotational speed of 50 rpm.
# [2] = Dissolution of diclofenac, dissolution test second liquid (pH 6.8); type: physicochemical; conditions: for Diclofenac concentration pH 6.8: 2 mg diclofenac, 37 degrees Celsius, 50 rpm
# Description: as §1
structure (smiles),measurement,setting,value
"O=C(O)Cc1ccccc1Nc1c(Cl)cccc1Cl [diclofenac bulk powder, diclofenac]","dissolution of diclofenac, in words",[1],prompt elusion
same,Diclofenac concentration pH 6.8,[2]; collection time 0 min,0 μg/mL
same,Diclofenac concentration pH 6.8,[2]; collection time 10 min,20.92 ± 0.66 μg/mL
same,Diclofenac concentration pH 6.8,[2]; collection time 20 min,19.83 ± 0.74 μg/mL
same,Diclofenac concentration pH 6.8,[2]; collection time 30 min,20.07 ± 0.59 μg/mL
same,Diclofenac concentration pH 6.8,[2]; collection time 40 min,19.97 ± 0.22 μg/mL
same,Diclofenac concentration pH 6.8,[2]; collection time 60 min,20.42 ± 0.46 μg/mL
same,Diclofenac concentration pH 6.8,[2]; collection time 90 min,20.21 ± 0.54 μg/mL
same,Diclofenac concentration pH 6.8,[2]; collection time 120 min,20.45 ± 0.69 μg/mL
same,"dissolution of diclofenac, in words",[2]; dissolution test second liquid (pH 6.8),sustained release
